Publication PMC11062894, “Protein-based bandpass filters for controlling cellular signaling with chemical inputs” (Nature Chemical Biology, 2023)
Values joined by “and” are separate entries in the source; they are usually repeats but may differ in a detail not shown here. Equal entries are not always repeated.

Test system: GEMS receptors with CBPA11 (BclXL–LD3 and BclXLhigh variants), STAT3-driven SEAP in HEK293T cells
Assay: GEMS SEAP reporter assay, CBPA11 (BclXLhigh, LD3-v and BclXL-v variants) with A-1155463
Format: cell-based
Set-up: key to Raw data (SEAP) / SEAP, replicate values / Raw data of Figure 5b / Raw data Figure 5e / Raw data of Independent repeat of CBPA11-v1 vs CBPA11-v1-LD3v3 / Raw data of Independent repeat of CBPA11-v3 vs CBPA11-v3-LD3v3 / Raw data of Figure 5b, CBPA11-v1-LD3v3 (SEAP reporter raw value, single replicate) / Raw data of Figure 5b, CBPA11-v1 (SEAP reporter raw value, single replicate): SEAP activity in U/L in culture supernatant
From the text: To rationally design a CBP responding to a chemical input, we used BclXL as the druglow receptor, LD3 as the designed binder and a designed BclXL variant as the drughigh receptor (referred to as BclXLhigh) to construct a CBP responsive to BclXL inhibitors (Fig. 4a). To design BclXLhigh, we used a multistate design computational protocol described elsewhere[26] […] Thus, BclXLhigh-v(1–3) were chosen as the functional drughigh receptors, resulting in three A-1155463-controlled CBPs (referred to as CBPA11-v(1–3)) (Fig. 4c–e).
HEK293T cells were seeded in a 96-well plate 24 h before transfection. The transfection mix in each well consisted of 3 ng of constitutive human CMV promoter driven mammalian STAT3 expression vector (PhCMV-STAT3-pA), 30 ng of STAT3-induced reporter expression (OStat3-PhCMVmin-SEAP-pA) and 50 ng of expression vectors for each GEMS receptor chain (PSV40-IgK-(drughigh receptor)-EpoRm-IL-6RBm-pA and PSV40-IgK-(druglow receptor-GGGGSX3-LD3)-EpoRm-IL-6RBm-pA). For the specific drughigh receptor and druglow receptor used in the different cellular assays, they are indicated as wild type or with mutations. Then, plasmid DNA was mixed with 50 μl opti-MEM (Thermo Fisher) and 600 ng of polyethyleneimine (Polysciences, catalog no. 24765-1). For drug treatment experiments, drugs were added 12 h post-transfection and incubated with cells for 24 h before the SEAP reporter detection assay.
SEAP activity (U l^−1) in cell culture supernatants was quantified by kinetic measurements at 405 nm (1 minute per measurement for 30 cycles) of absorbance increase due to phosphatase-mediated hydrolysis of para-nitrophenyl phosphate (pNPP).
Binding affinities of SPR drug competition assays were calculated using three-parameter nonlinear regression in GraphPad Prism (v.8.3.0). Representative data of cell assays are presented as individual values and mean values (bars). n = 3 refers to biological replicates. All IC50 or EC50 values of cell assays reported were calculated using four-parameter nonlinear regression ± s.d. Bandpass features of cutoff concentrations and Bandwidth90% were estimated based on the curve fitted using bell-shaped curve nonlinear regression in GraphPad Prism (v.8.3.0). […]
Supplementary Figure 4: Design, screening and validation of BclXLhigh variants. a) Screening of BclXLhigh variants in the GEMS platform. […]
Dissociation constant measurement of BclXLhigh-v(1-3) and LD3. Equilibrium curves are fitted using […]
BclXLhigh-v1 (purple), BclXLhigh-v2 (blue), […]
a) Bcl2high-based bandpass filter designs were developed and to respond to different concentrations of […]
corresponding inhibitor. c) Screening of Bcl2high-based bandpass filter variants in the GEMS platform.
The designed binder LD3 was fused to the druglow-receptor (PSV40-IgK-Bcl2-LD3-EpoRm-IL-6RBm-pA) in one EpoR chain and Bcl2high variants with the insensitive Bcl2 (iBcl2) as control in the other EpoR chain (PSV40-IgK-Bcl2high-EpoRm-IL-6RBm-pA). HEK293T cells were transfected with indicated […]
the mean of six biological replicates ± s.d., overlaid with a scatter dot plot of the original data points.
(1 picture or pasted object on this page, not shown here)
Supplementary Figure 6: Binding affinities and drug resistances of Bcl2high-v(2,4,5) assessed by […]
a) Measurement of dissociation constants for Bcl2high-v(2,4,5) and LD3 interactions. Equilibrium curves […]
Bcl2high-v(2,4,5) measured by SPR. 5 μM of Bcl2 or indicated variants were mixed with 10 μM of […]
Bcl2high-v2 (red), Bcl2high-v4
Supplementary Figure 7: Screening of LD3 variants in CBPA11-v(1-3) and raw data of CBPA11-v(1,3) with LD3-v3 variant. a-c) Screening of LD3 and LD3-v(1-3) variants in complex with BclXL for more sensitive CBPA11-v1 (a), CBPA11-v2 (b), CBPA11-v3 (c) in the GEMS platform. The LD3 variants replaced the role of LD3 (PSV40-IgK-BclXL-LD3-v(1-3)-EpoRm-IL-6RBm-pA) in one EpoR chain and BclXLhigh-v(1-3) in the other EpoR chain (PSV40-IgK-BclXLhigh-V(1-3)-EpoRm-IL-6RBm-pA). HEK293T cells were transfected with […]

[1] = CBPA11-v3-BclXLv2, A-1155463 10000 nM
[2] = CBPA11-v3-LD3v3, A-1155463 1 nM
[3] = CBPA11-v3-LD3v3, A-1155463 3.18 nM
[4] = CBPA11-v3-LD3v3, A-1155463 10 nM
[5] = CBPA11-v3-LD3v3, A-1155463 31.8 nM
[6] = CBPA11-v3-LD3v3, A-1155463 100 nM
[7] = CBPA11-v3-LD3v3, A-1155463 318 nM
[8] = CBPA11-v3-LD3v3, A-1155463 1000 nM
[9] = CBPA11-v3-LD3v3, A-1155463 3180 nM

CN(C)CC#Cc1ccc(OCCCc2sc(N3CCc4cccc(C(=O)Nc5nc6ccccc6s5)c4C3)nc2C(=O)O)c(F)c1 [A-1155463]
Normalized data Figure 5e (CBPA11-v3, A-1155463 1000 nM): 81.2661 and 84.4942 and 85.1885 | Normalized data of Figure 5b (CBPA11-v3, A-1155463 1000 nM): 77.1257 and 88.7382 and 83.2133 | Raw data of Figure 5b (CBPA11-v3, A-1155463 1000 nM): 414.242 and 467.209 and 437.572 | Raw data of Independent repeat of CBPA11-v3 vs CBPA11-v3-LD3v3 (CBPA11-v3, A-1155463 1000 nM): 429.812 and 444.52 and 449.13 | Raw data of Independent repeat of CBPA11-v3 vs CBPA11-v3-LD3v3 (CBPA11-v3, A-1155463 3160 nM): 188.374 and 250.833 and 293.834 | Normalized data Figure 5e (CBPA11-v3, A-1155463 3180 nM): 35.6165 and 47.6783 and 55.7329 | Normalized data of Figure 5b (CBPA11-v3, A-1155463 3180 nM): 69.9852 and 73.5971 and 71.687 | Raw data Figure 5e (CBPA11-v3, A-1155463 3180 nM): 250.833 and 293.834 | Raw data of Figure 5b (CBPA11-v3, A-1155463 3180 nM): 375.891 and 387.491 and 376.961 | Normalized data of Figure 5b (CBPA11-v3, A-1155463 10000 nM): 33.3676 and 35.0593 and 32.1412 | Raw data Figure 5e (CBPA11-v3, A-1155463 10000 nM): 69.4522 and 75.5808 and 84.1281 | Raw data of Figure 5b (CBPA11-v3, A-1155463 10000 nM): 179.218 and 184.588 and 169.013 | Normalized data Figure 5e (CBPA11-v3-BclXLv2, A-1155463 1 nM): 21.2301 and 20.9054 and 25.1683 | Normalized data Figure 5e (CBPA11-v3-BclXLv2, A-1155463 3.18 nM): 36.7849 and 34.3141 and 39.7967 | Normalized data Figure 5e (CBPA11-v3-BclXLv2, A-1155463 10 nM): 81.6336 and 75.0518 and 82.9089 | Normalized data Figure 5e (CBPA11-v3-BclXLv2, A-1155463 31.8 nM): 90.6446 and 90.5045 and 89.528 | Normalized data Figure 5e (CBPA11-v3-BclXLv2, A-1155463 100 nM): 100 | Normalized data Figure 5e (CBPA11-v3-BclXLv2, A-1155463 318 nM): 94.0748 and 83.4986 and 97.6461 | Normalized data Figure 5e (CBPA11-v3-BclXLv2, A-1155463 1000 nM): 82.1634 and 70.2925 and 84.8015 | Normalized data Figure 5e (CBPA11-v3-BclXLv2, A-1155463 3180 nM): 56.5379 and 50.558 and 54.1989 | Normalized data Figure 5e [1]: 20.2076 and 19.0615 and 22.8054 | Raw data Figure 5e [1]: 80.3813 and 74.5359 and 94.7265 | Raw data of Independent repeat of CBPA11-v3 vs CBPA11-v3-LD3v3 (CBPA11-v3-LD3v3, A-1155463 0.01 nM): 22.6826 and 23.3953 and 23.1684 | Normalized data of Figure 5b [2]: 18.3263 and 15.7809 and 17.6916 | Raw data of Figure 5b [2]: 15.5654 and 14.7861 and 18.9282 | Raw data of Independent repeat of CBPA11-v3 vs CBPA11-v3-LD3v3 [2]: 39.675 and 38.1934 and 39.412 | Raw data of Independent repeat of CBPA11-v3 vs CBPA11-v3-LD3v3 (CBPA11-v3-LD3v3, A-1155463 3.16 nM): 41.6393 and 41.4109 and 44.6799 | Normalized data of Figure 5b [3]: 21.7199 and 21.0211 and 18.3728 | Raw data of Figure 5b [3]: 18.4478 and 19.6959 and 19.6571 | Normalized data of Figure 5b [4]: 42.8939 and 42.6676 and 37.1804 | Raw data of Figure 5b [4]: 36.4319 and 39.9778 and 39.7793 | Raw data of Independent repeat of CBPA11-v3 vs CBPA11-v3-LD3v3 [4]: 121.488 and 115.434 and 117.733 | Raw data of Independent repeat of CBPA11-v3 vs CBPA11-v3-LD3v3 (CBPA11-v3-LD3v3, A-1155463 31.6 nM): 175.057 and 186.814 and 198.727 | Normalized data of Figure 5b [5]: 100 and 85.1231 and 93.5368 | Raw data of Figure 5b [5]: 84.9348 and 79.7569 and 100.075 | Normalized data of Figure 5b [6]: 98.4645 and 100 | Raw data of Figure 5b [6]: 83.6306 | Raw data of Independent repeat of CBPA11-v3 vs CBPA11-v3-LD3v3 [6]: 212.624 and 240.137 and 273.777 | Raw data of Independent repeat of CBPA11-v3 vs CBPA11-v3-LD3v3 (CBPA11-v3-LD3v3, A-1155463 316 nM): 197.006 and 197.385 and 185.58 | Normalized data of Figure 5b [7]: 66.0363 and 74.9346 and 74.5506 | Raw data of Figure 5b [7]: 56.0878 and 70.2108 and 79.7618 | Normalized data of Figure 5b [8]: 44.7107 and 39.495 and 38.775 | Raw data of Figure 5b [8]: 37.975 and 37.0053 and 41.4854 | Raw data of Independent repeat of CBPA11-v3 vs CBPA11-v3-LD3v3 [8]: 89.9783 and 83.2851 and 69.3694 | Raw data of Independent repeat of CBPA11-v3 vs CBPA11-v3-LD3v3 (CBPA11-v3-LD3v3, A-1155463 3160 nM): 42.2434 and 33.2038 and 38.7983 | Normalized data of Figure 5b [9]: 16.4914 and 15.345 and 15.1706 | Raw data of Figure 5b [9]: 14.007 and 14.3777 and 16.2311
